Measured values taken from ChEMBL document CHEMBL3044743, “Synthesis and Phytotoxic Activities of N-Substituted Phenyl Isothiazolone Derivatives” (J Pestic Sci, 2003).

molecular target: T1, Protoporphyrinogen IX oxidase (Zea mays) (UniProt Q9FYV8); experiment: Inhibition of protoporphyrinogen IX oxidase in Zea mays cv. DK212MF (maize) seedlings assessed as protoporphyrin IX formation at 10 uM after 5 min by spectrophotometry
T1 sequence (whole entry): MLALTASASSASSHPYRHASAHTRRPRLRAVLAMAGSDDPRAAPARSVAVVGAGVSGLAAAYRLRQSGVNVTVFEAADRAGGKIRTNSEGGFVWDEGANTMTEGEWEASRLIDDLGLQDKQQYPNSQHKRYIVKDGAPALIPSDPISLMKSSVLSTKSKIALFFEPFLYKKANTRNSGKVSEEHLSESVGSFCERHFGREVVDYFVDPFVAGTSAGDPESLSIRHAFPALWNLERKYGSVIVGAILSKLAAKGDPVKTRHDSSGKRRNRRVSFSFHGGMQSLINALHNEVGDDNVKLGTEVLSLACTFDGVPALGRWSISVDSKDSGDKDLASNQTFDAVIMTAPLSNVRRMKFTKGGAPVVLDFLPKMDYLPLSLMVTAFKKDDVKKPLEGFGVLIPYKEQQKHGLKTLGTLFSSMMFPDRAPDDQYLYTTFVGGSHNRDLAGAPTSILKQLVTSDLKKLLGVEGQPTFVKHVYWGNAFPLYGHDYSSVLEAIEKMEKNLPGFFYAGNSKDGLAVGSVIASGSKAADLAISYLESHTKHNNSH

Row | Structure (SMILES) | inhibition [%]
1 | O=c1c2c(sn1-c1ccc(Cl)cc1)CCCC2 | 11.2

tested on: Scenedesmus acutus; experiment: Phytotoxicity against Scenedesmus acutus assessed as ethane production level per ml of packed cell volume at 10 uM after 20 hr by gas chromatography; assay type: functional

Row | Structure (SMILES) | Activity [nmol/mL]
2 | CC(C)OC(=O)c1cc(N2C(=O)C3=C(CCCC3)C2=O)ccc1Cl | 12
3 | CC(C)OC(=O)c1cc(-n2c(=O)c3c([s+]2[O-])CCCC3)ccc1Cl (stereo not drawn) | 3
4 | O=C1C2=C(CCCC2)C(=O)N1c1cc(OC2CCCC2)c(Cl)cc1F | 12
5 | O=c1c2c([s+]([O-])n1-c1ccc(Cl)cc1)CCCC2 (stereo not drawn) | 3
6 | O=C1C2=C(CCCC2)S(=O)(=O)N1c1cc(OC2CCCC2)c(Cl)cc1F | 3
7 | O=C1C2=C(CCCC2)S(=O)(=O)N1c1ccc(Cl)cc1 | 12
8 | O=c1c2c([s+]([O-])n1-c1cc(OC3CCCC3)c(Cl)cc1F)CCCC2 (stereo not drawn) | 0
9 | O=c1c2c(sn1-c1cc(OC3CCCC3)c(Cl)cc1F)CCCC2 | 0
10 | O=c1c2c(sn1-c1ccc(Cl)cc1)CCCC2 | 7
11 | CC(C)OC(=O)c1cc(-n2sc3c(c2=O)CCCC3)ccc1Cl | 3
12 | CC(C)OC(=O)c1cc(N2C(=O)C3=C(CCCC3)S2(=O)=O)ccc1Cl | 12
13 | O=C1C2=C(CCCC2)C(=O)N1c1ccc(Cl)cc1 [CHLOROPHTHALIUM] | 12
